Data: BigSolDB 2.1

O=C(O)/C=C/C(=O)O
solubility (mole fraction)
Settings | in acetone | in ethanol | in isopropanol | in n-propanol | in water
279 K | 0.00344 | 0.0126 | 0.0109 | 0.00847 | 0.000136
285 K | 0.00419 | 0.014 | 0.0138 | 0.0103 | 0.000435
291 K | 0.00498 | 0.0157 | 0.0169 | 0.0122 | 0.000813
297 K | 0.00583 | 0.0178 | 0.0202 | 0.0143 | 0.00125
303 K | 0.00673 | 0.0205 | 0.0236 | 0.0165 | 0.00171
309 K | 0.00768 | 0.0233 | 0.0272 | 0.0189 | 0.00221
315 K | 0.00867 | 0.0267 | 0.031 | 0.0215 | 0.00265
321 K | 0.00972 | 0.0305 | 0.0349 | 0.0243 | 0.00328
327 K | 0.0108 | 0.0344 | 0.0391 | 0.0274 | 0.00415
333 K | 0.012 | 0.0383 | 0.0435 | 0.0306 | 0.00541
339 K | – | – | – | 0.0355 | 0.00624
342 K | – | – | 0.0538 | – | –
343 K | – | 0.0451 | – | – | –
345 K | – | – | – | 0.0398 | –
351 K | – | – | 0.0656 | – | –
351.8 K | – | – | – | 0.0486 | –
353 K | – | – | – | – | 0.00884
